In patent EP4467141A1, “PYRAZOLO-QUINOLINES AS SELECTIVE INHIBITORS OF GENOTOXIC STRESS-INDUCED IKK/NF- KB PATHWAYS FOR CANCER THERAPY” (Max-Delbrück-Centrum für Molekulare Medizin in der …, priority 2023, dated 2024):

Legend:
Experiment in all cases: Kinase panel study
Format in all cases: biochemical
Details in all cases: read-out: Percentage of inhibition; for inhibition at 1 µM: 1000nM; for inhibition at 10 µM: 10000nM
ABL1 F317I = molecular target: T1, ABL1 F317I (Homo sapiens, UniProt P00519, F317I)
T1 construct: purchased Thermo Fisher Scientific
T1 sequence (P00519 whole entry F317I): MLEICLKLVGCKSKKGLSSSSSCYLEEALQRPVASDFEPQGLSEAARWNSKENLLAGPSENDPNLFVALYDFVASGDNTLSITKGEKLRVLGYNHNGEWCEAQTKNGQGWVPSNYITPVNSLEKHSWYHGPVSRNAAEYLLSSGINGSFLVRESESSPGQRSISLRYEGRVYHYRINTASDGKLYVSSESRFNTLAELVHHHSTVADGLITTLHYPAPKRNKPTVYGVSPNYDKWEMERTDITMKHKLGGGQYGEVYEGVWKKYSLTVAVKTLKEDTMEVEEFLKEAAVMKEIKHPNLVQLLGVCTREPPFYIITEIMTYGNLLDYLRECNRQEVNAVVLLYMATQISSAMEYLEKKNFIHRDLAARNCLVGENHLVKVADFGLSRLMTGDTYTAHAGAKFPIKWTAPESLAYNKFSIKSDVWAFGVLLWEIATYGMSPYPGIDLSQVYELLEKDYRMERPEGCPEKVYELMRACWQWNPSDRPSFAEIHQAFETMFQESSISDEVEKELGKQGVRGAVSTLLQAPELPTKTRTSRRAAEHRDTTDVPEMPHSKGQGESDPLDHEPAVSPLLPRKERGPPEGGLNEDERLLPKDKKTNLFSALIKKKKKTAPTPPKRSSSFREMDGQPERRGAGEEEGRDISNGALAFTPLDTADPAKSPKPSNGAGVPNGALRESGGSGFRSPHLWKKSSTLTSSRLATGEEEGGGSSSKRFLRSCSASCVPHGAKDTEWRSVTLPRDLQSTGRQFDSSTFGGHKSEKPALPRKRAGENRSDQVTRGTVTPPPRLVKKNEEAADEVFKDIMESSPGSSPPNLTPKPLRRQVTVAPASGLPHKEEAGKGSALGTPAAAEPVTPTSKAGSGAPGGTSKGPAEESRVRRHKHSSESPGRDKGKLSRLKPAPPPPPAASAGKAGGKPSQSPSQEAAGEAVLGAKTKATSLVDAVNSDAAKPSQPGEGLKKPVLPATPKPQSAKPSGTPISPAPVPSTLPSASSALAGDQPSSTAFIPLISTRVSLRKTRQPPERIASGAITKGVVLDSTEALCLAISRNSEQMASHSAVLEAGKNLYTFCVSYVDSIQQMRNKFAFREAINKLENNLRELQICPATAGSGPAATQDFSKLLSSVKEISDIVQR
Outline: (§1)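 In vitro, kinase panel; ZLyte or Adapta SOP; single-concentration testing (1 or 10 µM); output = % inhibition, plus IC50 in panel.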

MARK3 = molecular target: T2, MARK3 (Homo sapiens, UniProt P27448)
T2 construct: purchased Thermo Fisher Scientific
T2 sequence (P27448 whole entry): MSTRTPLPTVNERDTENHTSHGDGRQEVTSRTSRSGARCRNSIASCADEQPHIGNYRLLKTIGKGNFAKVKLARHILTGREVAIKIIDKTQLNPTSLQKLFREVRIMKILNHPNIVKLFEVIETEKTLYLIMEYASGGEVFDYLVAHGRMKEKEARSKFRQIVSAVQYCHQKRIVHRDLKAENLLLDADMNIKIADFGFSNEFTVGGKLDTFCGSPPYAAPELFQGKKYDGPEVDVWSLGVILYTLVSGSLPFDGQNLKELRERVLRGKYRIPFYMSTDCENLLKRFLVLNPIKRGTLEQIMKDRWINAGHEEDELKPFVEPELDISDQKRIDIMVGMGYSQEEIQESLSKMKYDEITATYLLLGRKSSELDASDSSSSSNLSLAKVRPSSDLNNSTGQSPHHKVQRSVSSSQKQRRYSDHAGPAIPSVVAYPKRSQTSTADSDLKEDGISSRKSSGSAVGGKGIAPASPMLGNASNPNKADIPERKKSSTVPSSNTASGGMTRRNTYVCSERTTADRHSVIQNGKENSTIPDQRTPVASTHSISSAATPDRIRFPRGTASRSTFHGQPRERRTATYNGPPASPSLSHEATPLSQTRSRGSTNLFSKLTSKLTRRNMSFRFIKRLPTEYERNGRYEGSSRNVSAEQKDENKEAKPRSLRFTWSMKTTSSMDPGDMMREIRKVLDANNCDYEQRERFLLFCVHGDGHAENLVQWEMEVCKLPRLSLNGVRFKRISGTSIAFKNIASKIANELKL
Outline: as §1

MERTK (cMER) = molecular target: T3, MERTK (cMER) (Homo sapiens, UniProt Q12866)
T3 construct: purchased Thermo Fisher Scientific
T3 sequence (Q12866 21-999): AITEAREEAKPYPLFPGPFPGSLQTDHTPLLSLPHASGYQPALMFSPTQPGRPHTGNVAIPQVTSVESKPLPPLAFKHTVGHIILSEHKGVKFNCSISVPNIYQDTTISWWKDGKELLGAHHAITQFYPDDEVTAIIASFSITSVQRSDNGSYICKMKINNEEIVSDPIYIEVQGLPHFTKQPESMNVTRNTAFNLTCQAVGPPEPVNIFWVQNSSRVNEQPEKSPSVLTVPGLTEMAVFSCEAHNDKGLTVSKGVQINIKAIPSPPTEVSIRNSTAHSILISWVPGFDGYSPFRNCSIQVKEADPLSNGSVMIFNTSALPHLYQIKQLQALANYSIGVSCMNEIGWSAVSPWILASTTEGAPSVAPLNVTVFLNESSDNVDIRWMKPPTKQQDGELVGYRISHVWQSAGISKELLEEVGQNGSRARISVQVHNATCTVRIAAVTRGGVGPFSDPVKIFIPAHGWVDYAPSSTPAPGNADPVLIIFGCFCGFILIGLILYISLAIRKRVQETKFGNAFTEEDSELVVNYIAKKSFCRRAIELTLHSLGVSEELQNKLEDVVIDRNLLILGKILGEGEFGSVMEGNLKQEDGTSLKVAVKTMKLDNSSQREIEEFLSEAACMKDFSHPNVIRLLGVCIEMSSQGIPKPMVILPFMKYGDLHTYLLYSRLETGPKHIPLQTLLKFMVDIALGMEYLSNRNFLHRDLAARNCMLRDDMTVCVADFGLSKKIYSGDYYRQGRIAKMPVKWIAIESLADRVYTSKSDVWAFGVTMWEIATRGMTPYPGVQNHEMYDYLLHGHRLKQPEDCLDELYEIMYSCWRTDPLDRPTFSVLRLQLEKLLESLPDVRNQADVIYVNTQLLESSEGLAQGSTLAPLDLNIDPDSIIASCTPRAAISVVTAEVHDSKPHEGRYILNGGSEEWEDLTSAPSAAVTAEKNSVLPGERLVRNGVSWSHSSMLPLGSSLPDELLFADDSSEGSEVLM
Outline: as §1

SMILES	inhibition at 1 µM (ABL1 F317I)	inhibition at 10 µM (ABL1 F317I)	inhibition at 1 µM (MARK3)	inhibition at 10 µM (MARK3)	inhibition at 1 µM (MERTK (cMER))	inhibition at 10 µM (MERTK (cMER))
COc1ccc2c(c1OC)c(=O)n1c3ccc(O)cc3c3ccnc2c31 [MW01, 5-Hydroxy-10,11-dimethoxy-9H-benzo[c]indolo[3,2,1-ij][1,5]naphthyridin-9-one]	8%	19%	0%	7%	54%	86%
COc1ccc2cc3c(N)nn(C(=O)c4cccc(N(C)C)c4)c3nc2c1 [MW05, (3-Amino-7-methoxypyrazolo[3,4-b]quinolin-1-yl)-[3-(dimethylamino)phenyl]methanone]	6%	-1%	3%	-5%	4%	11%
